We go through 32 molecules from PMC6390652 (Toxicological Sciences, 2018).

Series [1] concerns human GI microtissues (EpiIntestinal-FT, ileal). The series can be described thus: Human GI microtissue barrier function assay. The class given is cell-based. The note with it: for TEER (IC15): human microtissue, blinded, unit not given; for IC15: Homo sapiens.
Series [2] has as its system human GI microtissue. The series can be described thus: GI microtissue TEER response kinetics. It is filed as cell-based.
Series [3] has as its system human GI microtissue. Description: MTT viability assay. The class given is cell-based. The note with it: Caco-2, read-out: MTT IC50. For orientation: Tetrazolium dyes change colour on reduction, which living cells bring about.
Another series relates to Caco-2 cells. The note with it: for Caco-2 TEER IC15: Caco-2 transwell, top conc. 100 μM, unit inferred; for Caco-2 TEER IC15/Cmax: human.
Setting [4] is: 96 h, read-out: Microtissue Exp 1 TEER IC15.
Where [5] appears, read: read-out: Microtissue Exp 2 TEER IC15.

pIC50: −log10 of the molar value. Read-outs that look alike come from different tables or passages of the source.

The term pIC50 denotes −log10 of the IC50, conventionally taken in molar units.

On to `CSCC[C@H](NC(=O)c1cc(NC[C@@H]2C[C@H](SC(=O)c3cccnc3)CN2)ccc1CCc1ccc(F)cc1)C(=O)OC(C)C` [AZD3409], for which the “TEER (IC15)” value in series [1] was 3.0E-06. Also, in series [1] (scored with TEER IC15/Cmax ratio < 80), the “TEER Diarrhea-Genic Prediction” value is given as “Active”.
As to `CNC(=O)CN1CCC(Oc2cc3c(Nc4cccc(Cl)c4F)ncnc3cc2OC)CC1` [AZD8931], in series [1], the “TEER Diarrhea-Genic Prediction” value is “Active” and the “TEER (IC15)” value stood at 3.0E-9. The “TEER recovery after washout” value in the series with human GI microtissue [2] (100 μM for 3 days, then washout (first cycle)) is recorded as “quickly recovered TEER after washout”. Besides, the “Effect on TEER during 3-day treatment period” value with human GI microtissue [2] (100 μM, 3 days continuous, TEER measured daily) is “pronounced decrease in TEER”. For the same molecule, the “TEER recovery after second treatment cycle” value in the series with human GI microtissue [2] (100 μM, second treatment cycle) is “slower”.
`CN(C)C/C=C/C(=O)Nc1cc2c(Nc3ccc(F)c(Cl)c3)ncnc2cc1O[C@H]1CCOC1` [Afatinib]: the IC15 in series [1] (setting [4]) turned out to be 6 µM; in series [1] (setting [5]), 8.5 µM. Further, the pIC50 with human GI microtissue [3] was 4.52. Also, in the series with Caco-2 cells, the Caco-2 TEER IC15 turned out to be 9 µM.
Consider `COc1cc2nc(N(C)CCCNC(=O)C3CCCO3)nc(N)c2cc1OC` (stereo not drawn) [Alfuzosin], for which the IC15 in series [1] (setting [4]) and in series [1] (setting [5]) was more than 100 µM in each case. For the same molecule, in the series with human GI microtissue [3], the pIC50 is less than 4.00. For the same molecule, the “Caco-2 TEER IC15/Cmax” value in the series with Caco-2 cells came to 3132.
As for `CCCCc1oc2ccccc2c1C(=O)c1cc(I)c(OCCN(CC)CC)c(I)c1` [Amiodarone], the IC15 in series [1] (setting [4]) was determined as 40 µM.
As to `CCOC(=O)C1=C(COCCN)NC(C)=C(C(=O)OC)C1c1ccccc1Cl` (stereo not drawn) [Amlodipine], the IC15 worked out at 15 µM in series [1] (setting [4]) and 10 µM in series [1] (setting [5]). Besides, the pIC50 with human GI microtissue [3] is 4.35. This molecule also gave a Caco-2 TEER IC15 with Caco-2 cells of 30 µM.
For `CNC(=O)c1ccccc1Sc1ccc2c(/C=C/c3ccccn3)n[nH]c2c1` [Axitinib], the values for the IC15 in series [1] (setting [4]) and in series [1] (setting [5]) were 1 µM and more than 100 µM, respectively.
In the case of `CC(C)C[C@H](NC(=O)[C@H](Cc1ccccc1)NC(=O)c1cnccn1)B(O)O` [Bortezomib], the IC15 in series [1] (setting [4]) and in series [1] (setting [5]) was 1 µM throughout. Moreover, the pIC50 in the series on human GI microtissue [3] was less than 4.00. Further, in the series on Caco-2 cells, the Caco-2 TEER IC15 was determined as 1 µM.
Consider `CCCCCOC(=O)Nc1nc(=O)n([C@@H]2O[C@H](C)[C@@H](O)[C@H]2O)cc1F` [Capecitabine], for which the IC15 in series [1] (setting [4]) and in series [1] (setting [5]) was 1 µM each time. The pIC50 in the series on human GI microtissue [3] is less than 4.00. The molecule further yielded a Caco-2 TEER IC15 with Caco-2 cells of more than 100 µM.
As for `COc1cc2c(c(OC)c1OC)-c1ccc(OC)c(=O)cc1[C@@H](NC(C)=O)CC2` [Colchicine], the IC15 in series [1] (setting [4]) was more than 100 µM; in series [1] (setting [5]), 1 µM.
With `C[C@@H](Oc1cc(-c2cnn(C3CCNCC3)c2)cnc1N)c1c(Cl)ccc(F)c1Cl` [Crizotinib], the IC15 in series [1] (setting [4]) and in series [1] (setting [5]) was 9.5 µM in each case. For the same molecule, the pIC50 in the series on human GI microtissue [3] is 4.66. This molecule also registered a Caco-2 TEER IC15 in the series on Caco-2 cells of 8 µM.
On to `C[C@@H]1C[C@H]2[C@@H]3CCC4=CC(=O)C=C[C@]4(C)[C@@]3(F)[C@@H](O)C[C@]2(C)[C@@]1(O)C(=O)CO` [Dexamethasone], for which the IC15 in series [1] (setting [4]) and in series [1] (setting [5]) was more than 100 µM throughout. Also, the pIC50 with human GI microtissue [3] is less than 4.00. Also, in the series on Caco-2 cells, the Caco-2 TEER IC15 was more than 100 µM.
Consider `Cc1cccc([C@H](C)c2cnc[nH]2)c1C` [Dexmedetomidine], for which the IC15 in series [1] (setting [4]) and in series [1] (setting [5]) was 40 µM each time. In addition, the pIC50 in the series with human GI microtissue [3] is less than 4.00. Further, in the series on Caco-2 cells, the “Caco-2 TEER IC15/Cmax” value is given as 21138.
`CC(=O)Oc1cccc2c1C(=O)c1c(OC(C)=O)cc(C(=O)O)cc1C2=O` [Diacerein]: the IC15 in series [1] (setting [4]) and in series [1] (setting [5]) was 40 µM each time. For the same molecule, in the series with human GI microtissue [3], the pIC50 was 4.19. In addition, the Caco-2 TEER IC15 in the series on Caco-2 cells is more than 100 µM.
Consider `CC(=O)O[C@@]12CO[C@@H]1C[C@H](O)[C@@]1(C)C(=O)[C@H](O)C3=C(C)[C@@H](OC(=O)[C@H](O)[C@@H](NC(=O)OC(C)(C)C)c4ccccc4)C[C@@](O)([C@@H](OC(=O)c4ccccc4)[C@H]21)C3(C)C` [Docetaxel], for which the IC15 in series [1] (setting [4]) and in series [1] (setting [5]) was 40 µM each time. Besides, the pIC50 with human GI microtissue [3] is 4.19. Moreover, in the series with Caco-2 cells, the Caco-2 TEER IC15 was more than 100 µM.
Regarding `CN(CCOc1ccc(NS(C)(=O)=O)cc1)CCc1ccc(NS(C)(=O)=O)cc1` [Dofetilide], the IC15 in series [1] (setting [4]) and in series [1] (setting [5]) was more than 100 µM in each case. The pIC50 in the series with human GI microtissue [3] was less than 4.00. The Caco-2 TEER IC15 in the series with Caco-2 cells is more than 100 µM.
Consider `CC(C)(C)NC(=O)[C@H]1CC[C@H]2[C@@H]3CC[C@H]4NC(=O)C=C[C@]4(C)[C@H]3CC[C@]12C` [Finasteride], for which the IC15 in series [1] (setting [4]) was 80 µM; in series [1] (setting [5]), more than 100 µM. In the series with human GI microtissue [3], the pIC50 is less than 4.00. In the series with Caco-2 cells, this molecule showed a Caco-2 TEER IC15 of more than 100 µM.
For `O=C(NCC1CCCCN1)c1cc(OCC(F)(F)F)ccc1OCC(F)(F)F` (stereo not drawn) [Flecainide], the IC15 is 80 µM in series [1] (setting [4]) and more than 100 µM in series [1] (setting [5]). The pIC50 with human GI microtissue [3] was less than 4.00. For the same molecule, the Caco-2 TEER IC15 in the series on Caco-2 cells is more than 100 µM.
With `CO[C@H]1O[C@H](COS(=O)(=O)O)[C@@H](O[C@@H]2O[C@@H](C(=O)O)[C@@H](O[C@H]3O[C@H](COS(=O)(=O)O)[C@@H](O[C@@H]4O[C@H](C(=O)O)[C@@H](O[C@H]5O[C@H](COS(=O)(=O)O)[C@@H](O)[C@H](O)[C@H]5NS(=O)(=O)O)[C@H](O)[C@H]4O)[C@H](OS(=O)(=O)O)[C@H]3NS(=O)(=O)O)[C@H](O)[C@H]2OS(=O)(=O)O)[C@H](O)[C@H]1NS(=O)(=O)O` [Fondaparinux], the IC15 in series [1] (setting [4]) and in series [1] (setting [5]) was more than 100 µM in each case. Further, the pIC50 in the series with human GI microtissue [3] is less than 4.00. This molecule also had a Caco-2 TEER IC15 with Caco-2 cells of more than 100 µM.
With `O=C(CCCN1CCC(O)(c2ccc(Cl)cc2)CC1)c1ccc(F)cc1` [Haloperidol], the IC15 in series [1] (setting [4]) was found to be 22 µM; in series [1] (setting [5]) it was 8 µM. Besides, the Caco-2 TEER IC15 in the series on Caco-2 cells came out at 30 µM.
For `CC(=O)[C@]1(O)Cc2c(O)c3c(c(O)c2[C@@H](O[C@H]2C[C@H](N)[C@H](O)[C@H](C)O2)C1)C(=O)c1ccccc1C3=O` [Idarubicin], the IC15 in series [1] (setting [4]) turned out to be 4.3 µM; in series [1] (setting [5]), 2.5 µM. The pIC50 in the series on human GI microtissue [3] is 5.00. The Caco-2 TEER IC15 in the series on Caco-2 cells was determined as 8 µM.
As for `Cc1ccc(NC(=O)c2ccc(CN3CCN(C)CC3)cc2)cc1Nc1nccc(-c2cccnc2)n1` [Imatinib], the IC15 was 7 µM in series [1] (setting [4]) and 8 µM in series [1] (setting [5]).
Take `CC(C)NCC(O)c1ccc(O)c(O)c1` (stereo not drawn) [Isoprenaline]: the IC15 in series [1] (setting [4]) and in series [1] (setting [5]) was more than 100 µM each time. Moreover, the pIC50 with human GI microtissue [3] was less than 4.00. The Caco-2 TEER IC15 in the series on Caco-2 cells was more than 100 µM.
As to `CNCCCC12CCC(c3ccccc31)c1ccccc12` [Maprotiline], the IC15 in series [1] (setting [4]) was 6 µM; in series [1] (setting [5]), 9 µM.
On to `COc1c2occc2cc2ccc(=O)oc12` [Methoxsalen], for which the IC15 in series [1] (setting [4]) and in series [1] (setting [5]) was 150 µM in each case. Also, the pIC50 in the series with human GI microtissue [3] is 3.82.
For the molecule `CC(C)(C)NCC(O)COc1cccc2c1CC(O)C(O)C2` (stereo not drawn) [Nadolol], the IC15 in series [1] (setting [4]) and in series [1] (setting [5]) was more than 100 µM each time. For the same molecule, the pIC50 with human GI microtissue [3] was less than 4.00. The Caco-2 TEER IC15 with Caco-2 cells was more than 100 µM.
As to `CCCCC[C@H](O)/C=C/[C@@H]1[C@H]2C/C(=C/CCCC(=O)O)O[C@H]2C[C@H]1O` [Prostacyclin], the IC15 in series [1] (setting [4]) and in series [1] (setting [5]) was more than 100 µM in each case. Besides, the pIC50 with human GI microtissue [3] was less than 4.00. This molecule had a Caco-2 TEER IC15 in the series with Caco-2 cells of more than 100 µM.
Consider `C=C[C@H]1C[N@@]2CC[C@H]1C[C@@H]2[C@@H](O)c1ccnc2ccc(OC)cc12` [Quinidine], for which the IC15 in series [1] (setting [4]) and in series [1] (setting [5]) was 30 µM in each case. Moreover, in the series on human GI microtissue [3], the negative logarithm of the IC50 (pIC50) was less than 4.00.
For `CNC(=O)c1cc(Oc2ccc(NC(=O)Nc3ccc(Cl)c(C(F)(F)F)c3)cc2)ccn1` [Sorafenib], the IC15 in series [1] (setting [4]) and in series [1] (setting [5]) was 7.9 µM throughout. Also, the pIC50 in the series on human GI microtissue [3] was 4.19. In the series on Caco-2 cells, this molecule came in with a Caco-2 TEER IC15 of 15 µM.
With `C=CC[C@@H]1/C=C(\C)C[C@H](C)C[C@H](OC)[C@H]2O[C@@](O)(C(=O)C(=O)N3CCCC[C@H]3C(=O)O[C@H](/C(C)=C/[C@@H]3CC[C@@H](O)[C@H](OC)C3)[C@H](C)[C@@H](O)CC1=O)[C@H](C)C[C@@H]2OC` [Tacrolimus], the IC15 in series [1] (setting [4]) worked out at 30 µM; in series [1] (setting [5]) it was 40 µM. Besides, the pIC50 in the series with human GI microtissue [3] is 4.26. The molecule further returned a Caco-2 TEER IC15 with Caco-2 cells of 30 µM.
As to `C[C@]12C=CC(=O)C=C1CC[C@H]1[C@@H]3C[C@@H](O)[C@](O)(C(=O)CO)[C@@]3(C)C[C@H](O)[C@@]12F` [Triamcinolone], the IC15 in series [1] (setting [4]) and in series [1] (setting [5]) was more than 100 µM throughout. Moreover, the pIC50 with human GI microtissue [3] is less than 4.00. The same molecule displayed a Caco-2 TEER IC15 in the series on Caco-2 cells of more than 100 µM.
`COc1ccc(CCN(C)CCCC(C#N)(c2ccc(OC)c(OC)c2)C(C)C)cc1OC` (stereo not drawn) [Verapamil]: the IC15 in series [1] (setting [4]) came out at 40 µM; in series [1] (setting [5]), 45 µM.
